Values quoted from earlier work as cited in patent US10076496B2, “Engineering of polymer-stabilized nanoparticles for drugs with Log P values below 6 by controlled antisolvent precipitation” (THE CHINESE UNIVERSITY OF HONG KONG, priority 2011, dated 2018).

Log P: 7.38
Compound: CC(=O)O[C@H]1C(=O)[C@@]2(C)[C@H]([C@H](OC(=O)c3ccccc3)[C@]3(O)C[C@H](OC(=O)[C@H](O)[C@@H](NC(=O)c4ccccc4)c4ccccc4)C(C)=C1C3(C)C)[C@]1(OC(C)=O)CO[C@@H]1C[C@@H]2O [paclitaxel]
